Data published in PubChem BioAssay AID330 (DTP/NCI, 2004).
Values joined by “and” are separate entries in the source; they are usually repeats but may differ in a detail not shown here. Identical values can stand only once. Toxic doses and inconclusive results are not listed. Rule for the calls: active = survival T/C of 150% or more; inactive = T/C below 125% in these data.

System: P388 leukemia ip, CD2F1 mice, survival T/C
Test: NCI In Vivo Anticancer Drug Screen. Data for tumor model P388 Leukemia (intraperitoneal) in CD2F1 (CDF1) mice
Conditions: endpoint: median survival time, higher = longer survival
Outline: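 Mice carrying the transplanted tumor received test compound or vehicle. Survival was recorded in each group, and the value is the treated-group measurement divided by that of the vehicle-treated control group.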

[1] = dose: 25.0 mg/kg/injection, schedule: Q01DX009 (ip), vehicle: suspension in saline
[2] = dose: 50.0 mg/kg/injection, schedule: Q01DX009 (ip), vehicle: suspension in saline
[3] = dose: 50.0 mg/kg/injection, schedule: Q01DX005 (ip), vehicle: Klucel (hydroxypropylcellulose) (HPC)
[4] = dose: 100.0 mg/kg/injection, schedule: Q01DX005 (ip), vehicle: Klucel (hydroxypropylcellulose) (HPC)
[5] = dose: 50.0 mg/kg/injection, schedule: Q01DX009 (ip), vehicle: saline with Tween-80
[6] = dose: 100.0 mg/kg/injection, schedule: Q01DX009 (ip), vehicle: saline with Tween-80
[7] = dose: 200.0 mg/kg/injection, schedule: Q01DX009 (ip), vehicle: saline with Tween-80
[8] = dose: 50.0 mg/kg/injection, schedule: Q01DX005 (ip), vehicle: saline with Tween-80
[9] = dose: 100.0 mg/kg/injection, schedule: Q01DX005 (ip), vehicle: saline with Tween-80
[10] = dose: 200.0 mg/kg/injection, schedule: Q01DX005 (ip), vehicle: saline with Tween-80

Measured: T/C

c1ccc(C2CN3CCSC3=N2)cc1 (centres undefined)
inactive: dose: 3.13 mg/kg/injection, schedule: Q01DX009 (ip), vehicle: saline with Tween-80 98 % of control | dose: 3.75 mg/kg/injection, schedule: Q01DX005 (ip), vehicle: saline 101 % of control | dose: 6.25 mg/kg/injection, schedule: Q01DX009 (ip), vehicle: saline with Tween-80 100 % of control | dose: 7.5 mg/kg/injection, schedule: Q01DX005 (ip), vehicle: saline 100 % of control | dose: 12.5 mg/kg/injection, schedule: Q01DX009 (ip), vehicle: saline with Tween-80 98 % of control | dose: 15.0 mg/kg/injection, schedule: Q01DX005 (ip), vehicle: saline 99 % of control | dose: 25.0 mg/kg/injection, schedule: Q01DX009 (ip), vehicle: saline with Tween-80 103 % of control

C=C1C(=O)O[C@@H]2/C=C(/C)[C@@]3(O)C=C[C@](C)(C[C@@H](OC(=O)/C(=C\C)COC(C)=O)[C@@H]12)O3
inactive: dose: 2.5 mg/kg/injection, schedule: Q01DX009 (ip), vehicle: carboxymethylcellulose (CMC) 106 % of control | dose: 5.0 mg/kg/injection, schedule: Q01DX009 (ip), vehicle: carboxymethylcellulose (CMC) 120 % of control | dose: 10.0 mg/kg/injection, schedule: Q01DX009 (ip), vehicle: carboxymethylcellulose (CMC) 101 % of control | dose: 20.0 mg/kg/injection, schedule: Q01DX009 (ip), vehicle: carboxymethylcellulose (CMC) 120 % of control

N#C/C(=C\c1ccccc1)C(=O)Nc1ccccc1
inactive: dose: 6.25 mg/kg/injection, schedule: Q01DX009 (ip), vehicle: suspension in saline 99 % of control | dose: 12.5 mg/kg/injection, schedule: Q01DX009 (ip), vehicle: suspension in saline 100 % of control | [1] 99 % of control | [2] 97 % of control

CCC1C(=O)OCc2c1cc1n(c2=O)Cc2ccccc2-1 (centres undefined)
inactive: dose: 100.0 mg/kg/injection, schedule: Q01DX001 (ip), vehicle: saline with Tween-80 97 % of control | dose: 200.0 mg/kg/injection, schedule: Q01DX001 (ip), vehicle: saline with Tween-80 92 % of control | dose: 400.0 mg/kg/injection, schedule: Q01DX001 (ip), vehicle: saline with Tween-80 90 % of control

O=C1C2=C(/C=C/c3ccccc3)OCCC2=NN1c1ccccc1
inactive: dose: 60.0 mg/kg/injection, schedule: Q01DX005 (ip), vehicle: Klucel (hydroxypropylcellulose) (HPC) 94 % of control | dose: 120.0 mg/kg/injection, schedule: Q01DX005 (ip), vehicle: Klucel (hydroxypropylcellulose) (HPC) 98 % of control | dose: 240.0 mg/kg/injection, schedule: Q01DX005 (ip), vehicle: Klucel (hydroxypropylcellulose) (HPC) 109 % of control

O=c1c(O)c(-c2ccccc2)c1=O
inactive: dose: 25.0 mg/kg/injection, schedule: Q01DX005 (ip), vehicle: Klucel (hydroxypropylcellulose) (HPC) 98 % of control | [3] 100 % of control | [4] 98 % of control

Cc1ccc(Oc2ccc([N+](=O)[O-])c3[nH]c4ccccc4c(=O)c23)cc1
inactive: [5] 94 % of control | [6] 111 % of control | [7] 113 % of control

CC(=O)OCC(C)(C)COC1OCN(C(C)(C)C)CC1(C)C (centres undefined)
inactive: dose: 10.0 mg/kg/injection, schedule: Q01DX009 (ip), vehicle: saline with Tween-80 94 % of control | dose: 20.0 mg/kg/injection, schedule: Q01DX009 (ip), vehicle: saline with Tween-80 104 % of control | dose: 40.0 mg/kg/injection, schedule: Q01DX009 (ip), vehicle: saline with Tween-80 110 % of control

CCCCN(CCCC)C1CCC(Nc2ccnc3cc(Cl)ccc23)CC1 (centres undefined)
inactive: [3] 98 % of control | [4] 95 % of control

CC(C)(C)C1CN2CCO[Si](CC[Si](C)(C)C)(OCC2)O1 (centres undefined)
inactive: [3] 98 % of control | [4] 97 % of control | dose: 200.0 mg/kg/injection, schedule: Q01DX005 (ip), vehicle: Klucel (hydroxypropylcellulose) (HPC) 88 % of control

Cc1ccc(S(=O)(=O)N/N=C/c2c(Cl)n(C(=O)c3cccc(C)c3)c3ccccc23)cc1
inactive: dose: 50.0 mg/kg/injection, schedule: Q01DX001 (ip), vehicle: Klucel (hydroxypropylcellulose) (HPC) 97 % of control | dose: 100.0 mg/kg/injection, schedule: Q01DX001 (ip), vehicle: Klucel (hydroxypropylcellulose) (HPC) 90 % of control | dose: 200.0 mg/kg/injection, schedule: Q01DX001 (ip), vehicle: Klucel (hydroxypropylcellulose) (HPC) 87 % of control

Cc1cc(-c2cccc3ccccc23)[n+]([O-])cc1C
inactive: [8] 101 % of control | [9] 101 % of control | [10] 90 % of control

O=C1c2ccccc2-c2ccc(N=Cc3c[nH]c4ccccc34)cc21
inactive: dose: 50.0 mg/kg/injection, schedule: Q01DX005 (ip), vehicle: saline + Tween-80 + alcohol 104 % of control | dose: 100.0 mg/kg/injection, schedule: Q01DX005 (ip), vehicle: saline + Tween-80 + alcohol 98 % of control | dose: 200.0 mg/kg/injection, schedule: Q01DX005 (ip), vehicle: saline + Tween-80 + alcohol 98 % of control

NC(=O)OCCCCOC(N)=O
inactive: dose: 50.0 mg/kg/injection, schedule: Q01DX009 (ip), vehicle: Klucel (hydroxypropylcellulose) (HPC) 100 % of control | dose: 100.0 mg/kg/injection, schedule: Q01DX009 (ip), vehicle: Klucel (hydroxypropylcellulose) (HPC) 98 % of control

Cc1cccc(=O)[n-]1.Cc1cccc(=O)[n-]1.Cc1cccc(=O)[n-]1.Cc1cccc(=O)[n-]1.[Cu+].[Cu+].[Cu+].[Cu+]
inactive: dose: 12.5 mg/kg/injection, schedule: Q04DX002 (ip), vehicle: Klucel (hydroxypropylcellulose) (HPC) 108 % of control | dose: 25.0 mg/kg/injection, schedule: Q04DX002 (ip), vehicle: Klucel (hydroxypropylcellulose) (HPC) 109 % of control | dose: 50.0 mg/kg/injection, schedule: Q04DX002 (ip), vehicle: Klucel (hydroxypropylcellulose) (HPC) 100 % of control | dose: 100.0 mg/kg/injection, schedule: Q04DX002 (ip), vehicle: Klucel (hydroxypropylcellulose) (HPC) 108 % of control

C=C1C(=O)OC2/C=C(\C)CC/C=C(/C=O)CC(OC(=O)C(C)C)C12 (centres undefined)
inactive: dose: 5.0 mg/kg/injection, schedule: Q01DX009 (ip), vehicle: other 100 % of control | dose: 10.0 mg/kg/injection, schedule: Q01DX009 (ip), vehicle: other 91 % of control | dose: 20.0 mg/kg/injection, schedule: Q01DX009 (ip), vehicle: other 112 % of control

COc1cc(/C=C/[N+](=O)[O-])cc(Br)c1O
inactive: dose: 30.0 mg/kg/injection, schedule: Q01DX005 (ip), vehicle: saline with Tween-80 119 % of control | dose: 60.0 mg/kg/injection, schedule: Q01DX005 (ip), vehicle: saline with Tween-80 110 % of control and 113 % of control | dose: 120.0 mg/kg/injection, schedule: Q01DX005 (ip), vehicle: saline with Tween-80 102 % of control and 122 % of control

NC(=O)C1(N(CCO)CCO)CCCC1
inactive: dose: 50.0 mg/kg/injection, schedule: Q01DX005 (ip), vehicle: saline 104 % of control | dose: 100.0 mg/kg/injection, schedule: Q01DX005 (ip), vehicle: saline 98 % of control | dose: 200.0 mg/kg/injection, schedule: Q01DX005 (ip), vehicle: saline 105 % of control

O=C(O)C(O)C(O)C1[O][Sb][O]C1C(=O)O (centres undefined)
inactive: dose: 12.5 mg/kg/injection, schedule: Q01DX005 (ip), vehicle: saline 110 % of control | [8] 100 % of control and 101 % of control and 94 % of control | [9] 100 % of control and 108 % of control and 109 % of control | [10] 111 % of control and 117 % of control | dose: 400.0 mg/kg/injection, schedule: Q01DX005 (ip), vehicle: saline with Tween-80 118 % of control and 120 % of control

COC(=O)C1(C)N=NN=C1N(C)C (centres undefined)
inactive: dose: 100.0 mg/kg/injection, schedule: Q04DX002 (ip), vehicle: saline 101 % of control | dose: 200.0 mg/kg/injection, schedule: Q04DX002 (ip), vehicle: saline 100 % of control | dose: 400.0 mg/kg/injection, schedule: Q04DX002 (ip), vehicle: saline 101 % of control

COC(=O)c1ccccc1NC(=NC(C)(C)C)c1ccccc1
inactive: [5] 98 % of control | [6] 98 % of control | [7] 91 % of control

CSC(C(O)C(O)C(O)C(O)CO)n1cnc2c(=S)nc[nH]c21 (centres undefined)
inactive: [8] 99 % of control | [9] 96 % of control | [10] 99 % of control

CC12CC3(C)CC(C)(C1)CC(C(Cl)C(=O)O)(C2)C3 (centres undefined)
inactive: [1] 98 % of control | [2] 100 % of control

CN1CC2CN(C)CC(C1)C2(O)c1ccccc1 (centres undefined)
inactive: dose: 12.5 mg/kg/injection, schedule: Q01DX009 (ip), vehicle: saline 97 % of control | dose: 25.0 mg/kg/injection, schedule: Q01DX009 (ip), vehicle: saline 98 % of control

O=c1c2ccccc2[nH]c2c1[nH]c1ccccc12
inactive: [3] 89 % of control | [4] 90 % of control
